Test results taken from patent US20220395549A1, “COMPOSITIONS OF THE OLEA EUROPAEA V. SYLVESTRIS WITH ANTIMICROBIAL EFFICACY” (TAPROGGE GMBH, priority 2019, published 2022).

Test system: S. aureus ATCC 6538
Assay: quantitative suspension assay of mono-substances
Format: cell-based, Staphylococcus aureus
Conditions: for Number of CFUs: initial cell load 9.9 × 10^4 CFU/ml
Method: A stock solution was prepared by adding 0.1 ml methanol to 10.48 mg of hydroxytyrosol. After dissolving of the compound, the solution was quantitatively transferred into 4.9 ml water for injection (WFI), effective concentration of hydroxytyrosol: 2.0 mg/ml.
Using the stock solution, five (5) concentrations of hydroxytyrosol in a geometric series of 2 mg hydroxytyrosol/ml to 0.125 mg hydroxytyrosol/ml were tested in a quantitative suspension assay.
2 ml of the stock solution and the dilutions (V1 to V4), respectively, and a methanol-solution of 2% as a positive control were inoculated with 0.1 ml of a test suspension of S. aureus ATCC 6538, adjusted to about 2.0×10^5 CFU/0.1 ml, resulting in about 100,000 CFU/ml in the individual assays.
Samples (0.1 ml) were then taken at t 0, 12, 30, and 60 minutes as well as t 24 48, and 72 hours after inoculation and culturing at between 20-25° C., and were diluted with 0.9 ml of 0.9% NaCl solution. The samples were plated on blood agar plates, and incubated up to 5 days at between 30-35° C.
A stock solution was prepared at a concentration of 2 mg/ml of oleocanthal. The compound was dissolved by in ethanol (99.8%) and WFI was added.
Using the stock solution, concentrations of oleocanthal in a geometric series of 1 mg oleocanthal/ml to 0.125 mg oleocanthal/ml were tested in a quantitative suspension assay.
2 ml of the stock solution and the dilutions (V1 to V4), respectively, and a ethanol-solution of 2.85% as a positive control were inoculated with 0.055 ml of a test suspension of S. aureus ATCC 6538, adjusted to about 3.6×10^5 CFU/0.1 ml, resulting in about 99,000 CFU/ml in the individual assays.
A stock solution was prepared at a concentration of 1 mg/ml of oleacin. The compound was dissolved by in ethanol (99.8%) and WFI was added.
Using the stock solution, concentrations of oleacin at 0.25 mg oleacin/ml and 0.125 mg oleacin/ml were tested in a quantitative suspension assay.
2 ml of the stock solution and the dilutions (V1 and V2), respectively, and a ethanol-solution of 0.44% as a positive control were inoculated with 0.055 ml of a test suspension of S. aureus ATCC 6538, adjusted to about 3.5×10^5 CFU/0.1 ml, resulting in about 99,000 CFU/ml in the individual assays.
A stock solution was prepared by adding 0.1 ml chloroform to 25 mg of uvaol. After dissolving of the compound, the solution was quantitatively transferred into 12.4 ml water for injection (WFI), effective concentration of uvaol: 2.0 mg/ml.
Using the stock solution, five (5) concentrations of uvaol in a geometric series of 2 mg uvaol/ml to 0.125 mg uvaol/ml were tested in a quantitative suspension assay.
2 ml of the stock solution and the dilutions (V1 to V4), respectively, and a chloroform-solution of 0.8% as a positive control were inoculated with 0.1 ml of a test suspension of S. aureus ATCC 6538, adjusted to about 2.0×10^5 CFU/0.1 ml, resulting in about 100,000 CFU/ml in the individual assays.
A stock solution was prepared by adding 0.1 ml chloroform to 10.45 mg of erythrodiol. After dissolving of the compound, the solution was quantitatively transferred into 4.9 ml water for injection (WFI), effective concentration of erythrodiol: 2.0 mg/ml.
2 ml of the stock solution and the dilutions (V1 to V4), respectively, and a chloroform-solution of 2% as a positive control were inoculated with 0.1 ml of a test suspension of S. aureus ATCC 6538, adjusted to about 3.6×10^5 CFU/0.1 ml, resulting in about 100.000 CFU/ml in the individual assays.

**Q.** For `CC=C(C=O)C(CC=O)CC(=O)OCCc1ccc(O)c(O)c1` (stereo in doubt) [oleacin], which “Number of CFUs” value (0.125 Oci/ml, t 0 min) is on record?
**A.** 4.3 × 10^3 CFU/ml

**Q.** And the “Number of CFUs” value (0.125 Oci/ml, t 12 min)?
**A.** <100 CFU/ml

**Q.** And the “Number of CFUs” value (0.125 Oci/ml, t 30 min)?
**A.** <100 CFU/ml

**Q.** What about the “Number of CFUs” value (0.125 Oci/ml, t 60 min) of the same molecule?
**A.** <100 CFU/ml

**Q.** And the “Number of CFUs” value (0.125 Oci/ml, t 24 h)?
**A.** <100 CFU/ml

**Q.** And the “Number of CFUs” value (0.125 Oci/ml, t 48 h)?
**A.** <100 CFU/ml

**Q.** What about the “Number of CFUs” value (0.125 Oci/ml, t 72 h) of the same molecule?
**A.** <100 CFU/ml

**Q.** And the “Number of CFUs” value (0.25 Oci/ml, t 0 min)?
**A.** 1.8 × 10^3 CFU/ml

**Q.** And the “Number of CFUs” value (0.25 Oci/ml, t 12 min)?
**A.** <100 CFU/ml

**Q.** And the “Number of CFUs” value (0.25 Oci/ml, t 30 min)?
**A.** <100 CFU/ml

**Q.** What about the “Number of CFUs” value (0.25 Oci/ml, t 60 min) of the same molecule?
**A.** <100 CFU/ml

**Q.** What about the “Number of CFUs” value (0.25 Oci/ml, t 24 h) of the same molecule?
**A.** <100 CFU/ml

**Q.** What about the “Number of CFUs” value (0.25 Oci/ml, t 48 h) of the same molecule?
**A.** <100 CFU/ml

**Q.** And the “Number of CFUs” value (0.25 Oci/ml, t 72 h)?
**A.** <100 CFU/ml

**Q.** What about the “antimicrobial effect, summary in words” value (detection limit of the assay 100 CFU/ml) of the same molecule?
**A.** immediate effect at the concentrations tested
